Assays:
SCC-7 [1] = experiment: Antitumor activity against mouse SCC-7 cells implanted in C3H mouse assessed as tumor growth time delay at 12 mg/kg, ip treated every other day 3 times in total; type: functional
SCC-7 [2] = experiment: Antitumor activity against mouse SCC-7 cells implanted in C3H mouse assessed as tumor growth time at 12 mg/kg, ip treated every other day 3 times in total (reference value: 2.8 +/- 0.6 day); type: functional
MCF7 = experiment: Antiproliferative activity against human MCF7 cells assessed as cell growth inhibition by CCK8 assay; type: functional, cell-based
U-87 MG = experiment: Antiproliferative activity against human U87 cells assessed as cell growth inhibition by CCK8 assay; type: functional, cell-based, U-87MG ATCC
RKO = experiment: Antiproliferative activity against human RKO cells assessed as cell growth inhibition by CCK8 assay; type: functional, cell-based
M21 = experiment: Antiproliferative activity against human M21 cells assessed as cell growth inhibition by CCK8 assay; type: functional, cell-based
HT-29 = experiment: Antiproliferative activity against human HT-29 cells assessed as cell growth inhibition by CCK8 assay; type: functional, cell-based
SNB-75 = experiment: Antiproliferative activity against human SNB-75 cells assessed as cell growth inhibition by CCK8 assay; type: functional, cell-based
SCC-7 [3] = experiment: Antiproliferative activity against mouse SCC-7 cells assessed as cell growth inhibition by CCK8 assay; type: functional, cell-based
[4] = Terminal half life in human plasma; type: ADME, cell-free; conditions: read-out: beta t1/2
PANC-1 = experiment: Antiproliferative activity against human PANC-1 cells assessed as cell growth inhibition by CCK8 assay; type: functional, cell-based
A549 = experiment: Antiproliferative activity against human A549 cells assessed as cell growth inhibition by CCK8 assay; type: functional, cell-based
IMR-32 = experiment: Antiproliferative activity against human IMR-32 cells assessed as cell growth inhibition by CCK8 assay; type: functional, cell-based
UMSCC22B = experiment: Antiproliferative activity against human UMSCC22B cells assessed as cell growth inhibition by CCK8 assay; type: functional, cell-based
A498 = experiment: Antiproliferative activity against human A498 cells assessed as cell growth inhibition by CCK8 assay; type: functional, cell-based

Compound	Time (SCC-7 [1]) [days]	Time (SCC-7 [2]) [days]	IC50 (MCF7) [pM]	IC50 (U-87 MG) [pM]	IC50 (RKO) [pM]	IC50 (M21) [pM]	IC50 (HT-29) [pM]	IC50 (SNB-75) [pM]	IC50 (SCC-7 [3]) [pM]	half-life [4] [min]	IC50 (PANC-1) [pM]	IC50 (A549) [pM]	IC50 (IMR-32) [pM]	IC50 (UMSCC22B) [pM]	IC50 (A498) [pM]
N[C@@H](CSCC(=O)N1CC([N+](=O)[O-])([N+](=O)[O-])C1)C(=O)O	1.1	3.9													
O=C(CBr)N1CCC1	1	3.8													
C[N+](C)(C)CC(=O)N1CC([N+](=O)[O-])([N+](=O)[O-])C1	0.8	3.6													
O=C(CBr)N1CC([N+](=O)[O-])([N+](=O)[O-])C1 [NIBROZETONE]	2	4.8	4	2.7	3	2.6	3.4	3.8	1.8	27.6	2.3	6	5.1	2.3	4.9

Source: ChEMBL document CHEMBL5036323, “Discovery of RRx-001, a Myc and CD47 Downregulating Small Molecule with Tumor Targeted Cytotoxicity and Healthy Tissue Cytoprotective Properties in Clinical Development” (J Med Chem, 2021)
